Experimental data taken from PMC10538222, “Isolation and Characterization of Anti-Inflammatory Compounds from Ficus microcarpa L.f. Stem Bark” (Plants, 2023).
Read-outs that look alike come from different tables or passages of the source. Each block holds one molecule with its values, some of them ahead of it.

Columns and labels:
ovine COX-1 = target: T1, ovine COX-1 (Ovis aries, UniProt P05979); assay: Colorimetric COX (ovine) inhibitor screening assay, COX-1; assay type: biochemical
T1 construct: purchased Cayman Chemical Co. 760111
T1 sequence (P05979 25-600): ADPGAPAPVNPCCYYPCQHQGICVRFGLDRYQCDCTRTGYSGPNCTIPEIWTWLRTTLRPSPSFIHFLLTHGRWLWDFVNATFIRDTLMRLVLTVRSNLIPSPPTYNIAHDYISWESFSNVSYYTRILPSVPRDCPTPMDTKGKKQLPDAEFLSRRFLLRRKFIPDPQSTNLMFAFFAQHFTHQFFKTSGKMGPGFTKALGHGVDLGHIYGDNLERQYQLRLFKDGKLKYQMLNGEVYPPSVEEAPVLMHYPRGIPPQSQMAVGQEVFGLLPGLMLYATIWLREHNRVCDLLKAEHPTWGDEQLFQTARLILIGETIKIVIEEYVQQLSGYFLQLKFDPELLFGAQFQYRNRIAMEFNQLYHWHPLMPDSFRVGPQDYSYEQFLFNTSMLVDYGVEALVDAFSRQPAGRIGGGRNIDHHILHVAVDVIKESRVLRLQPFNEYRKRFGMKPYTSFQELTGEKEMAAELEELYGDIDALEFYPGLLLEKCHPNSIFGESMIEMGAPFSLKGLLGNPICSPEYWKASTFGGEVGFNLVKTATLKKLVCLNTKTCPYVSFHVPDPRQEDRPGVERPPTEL
Source text: (§1) The IC50 is the concentration of tested compounds calculated using the regression equation.

ovine COX-2 = target: T2, ovine COX-2 (Ovis aries, UniProt P79208); assay: Colorimetric COX (ovine) inhibitor screening assay, COX-2; assay type: biochemical
T2 construct: purchased Cayman Chemical Co. 760111
T2 sequence (P79208 17-603): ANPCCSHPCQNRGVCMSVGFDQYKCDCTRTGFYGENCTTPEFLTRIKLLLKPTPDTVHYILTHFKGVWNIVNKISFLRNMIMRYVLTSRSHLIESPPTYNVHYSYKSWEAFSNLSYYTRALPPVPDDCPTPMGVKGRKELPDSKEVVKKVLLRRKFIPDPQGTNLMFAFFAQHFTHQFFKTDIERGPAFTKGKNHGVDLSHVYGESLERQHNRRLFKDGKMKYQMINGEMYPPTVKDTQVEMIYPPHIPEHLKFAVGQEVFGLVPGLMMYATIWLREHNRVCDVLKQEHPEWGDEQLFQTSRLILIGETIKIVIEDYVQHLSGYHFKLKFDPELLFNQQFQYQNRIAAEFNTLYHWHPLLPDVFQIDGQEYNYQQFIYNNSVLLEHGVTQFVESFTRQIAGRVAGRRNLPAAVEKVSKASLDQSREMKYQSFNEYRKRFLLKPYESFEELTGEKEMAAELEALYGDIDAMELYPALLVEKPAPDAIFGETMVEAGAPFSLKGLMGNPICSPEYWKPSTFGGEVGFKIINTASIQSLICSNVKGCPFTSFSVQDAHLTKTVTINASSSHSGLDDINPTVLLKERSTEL
Source text: as §1

[1] = test system: CFA-induced rat paw edema; assay: CFA-induced chronic inflammation (rat paw oedema); assay type: in vivo, Wistar rats; details: 10 mg/kg p.o. once daily
Method: (§2) The chronic anti-inflammatory activity of EAFMB was evaluated using the CFA-induced rat paw edema model. Wistar rats of either sex (180 to 200 g) were randomly divided into four groups, each comprising six animals. The control group (Group I) received only a vehicle (0.5% CMC, p.o.). […] Groups III to IV were treated with EAFMB (100 and 200 mg/kg, p.o., respectively) once daily for 21 days. On day 0, chronic inflammation, i.e., arthritis, was induced via injecting 0.1 mL of CFA containing 0.5% of dry heat-killed Mycobacterium tuberculosis in sterile paraffin oil into the sub-plantar region in the left hind paw of rats. The animals were evaluated for the following parameters: • % of a rise or inhibition of oedema
After the CFA injection, the paw oedema was measured using a plethysmograph on day 0 and thereafter on days 4, 8, 14, and 21. The results were expressed as the percent rise in and percent inhibition of paw oedema as per the formulae mentioned in the acute inflammation study. • Hematological Parameters

[2] = test system: CFA-induced chronic inflammation rats; assay: Hematological parameters in CFA-induced chronic inflammation; assay type: in vivo, Wistar rats; details: 10 mg/kg p.o. once daily for 21 days; blood on 21st day
Method: as §2
On the 21st day, blood was withdrawn through a retro-orbital plexus puncture from all treated groups under light ether anesthesia. The hematological parameters like hemoglobin content, total WBC count, ESR, and RBC were analyzed using Yumizen H550, HORIBA Hematology Analyzer, France.

[3] = test system: carrageenan-induced rat paw edema; assay: Carrageenan-induced acute inflammation (rat paw edema); assay type: in vivo, Wistar albino rats; details: 10 mg/kg p.o.
Method: The acute anti-inflammatory activity of EAFMB was evaluated using the carrageenan-induced rat paw edema model. Experimental animals were randomly divided into four groups, with six animals in each group. Group I (the control group) received a vehicle (1% CMC). […] Groups III and IV (test group) were given EAFMB at 100 and 200 mg/kg p.o doses, respectively. The drugs were administered orally 1 h before the carrageenan injection. The 0.1 mL of freshly prepared carrageenan suspension was injected into the left hind paw of each rat. The paw volume was measured using a Plethysmometer (Ugo Basile 2470, Italy) at 1, 2, 3, 4, 5, and 6 h after carrageenan administration. The results were expressed as a percentage of the increase in paw swelling and a percentage of the inhibition of paw swelling compared to the initial hind paw thickness. % Increase in Paw Volume =Final Paw Volume at specific time point − Intial Paw Volume at 0 h/Intial Paw Volume at 0 h×100 % Inhibition=Paw Volume at of Control − Paw Volume of treated group/Intial Paw VoluPaw Volume at of Control me at 0 h×100

- IC50 (ovine COX-1): 9.02 µM
- IC50 (ovine COX-2): 50.4 µM
Compound: Oc1cc(O)c2c(c1)OC(c1ccc(O)c(O)c1)C(O)C2 (stereo not shown) [Catechin, catechin]

Compound: COc1ccc2c(c1)c(CC(=O)O)c(C)n2C(=O)c1ccc(Cl)cc1 [Indomethacin, indomethacin]
- % Inhibition of paw oedema ([1]; 4th day after CFA): 46.78%
- % Rise in Paw Oedema ([1]; 4th day after CFA): 41.92 ± 1.46%
- % Inhibition of paw oedema ([1]; 8th day after CFA): 70.16%
- % Rise in Paw Oedema ([1]; 8th day after CFA): 27.95 ± 1.58%
- % Inhibition of paw oedema ([1]; 14th day after CFA): 84.48%
- % Rise in Paw Oedema ([1]; 14th day after CFA): 14.77 ± 1.39%
- % Inhibition of paw oedema ([1]; 21st day after CFA): 87.35%
- % Rise in Paw Oedema ([1]; 21st day after CFA): 11.99 ± 0.89%
- ESR [2]: 5.42 ± 0.31 mm/h
- Hb [2]: 14.62 ± 0.27 g%
- RBC [2]: 9.58 ± 0.27 millions/cubic mm
- WBC [2]: 6.37 ± 0.36 *** 10^3/cubic mm
- % Inhibition of paw oedema ([3]; 1 h after carrageenan): 27.78%
- % Rise in Paw Oedema ([3]; 1 h after carrageenan): 14.28 ± 0.42%
- % Inhibition of paw oedema ([3]; 2 h after carrageenan): 56.84%
- % Rise in Paw Oedema ([3]; 2 h after carrageenan): 15.85 ± 0.41%
- % Inhibition of paw oedema ([3]; 3 h after carrageenan): 57.97%
- % Rise in Paw Oedema ([3]; 3 h after carrageenan): 18.19 ±0.36%
- % Inhibition of paw oedema ([3]; 4 h after carrageenan): 59.39%
- % Rise in Paw Oedema ([3]; 4 h after carrageenan): 21.01 ± 0.51%
- % Inhibition of paw oedema ([3]; 5 h after carrageenan): 54.37%
- % Rise in Paw Oedema ([3]; 5 h after carrageenan): 26.18 ± 0.63%
- % Inhibition of paw oedema ([3]; 6 h after carrageenan): 48.18%
- % Rise in Paw Oedema ([3]; 6 h after carrageenan): 31.2 ± 0.81%

- IC50 (ovine COX-1; ovine COX-1, colorimetric, TMPD 590 nm, read-out: COX Inhibition (IC50) COX-1): 229 µM
- IC50 (ovine COX-2; ovine COX-2, colorimetric, TMPD 590 nm, read-out: COX Inhibition (IC50) COX-2): 246 µM
Compound: O=C(O)C=Cc1ccc(O)cc1 [P-hydroxycinnamic acid, p-hydroxycinnamic acid]
